According to ChEMBL document CHEMBL1641539 (Bioorg Med Chem Lett, 2011):

What was measured:
[1] = target: PI3-kinase p110-alpha/p85-alpha (Homo sapiens) (UniProt P27986+P42336); test: Inhibition of p110alpha/p85alpha at 10 uM after 60 mins by TR-FRET assay; format: protein-complex assay
[2] = target: T1, Serine/threonine-protein kinase Chk1 (Homo sapiens) (UniProt O14757); test: Inhibition of CHEK1 at 10 uM after 60 mins by TR-FRET assay
T1 sequence (whole entry): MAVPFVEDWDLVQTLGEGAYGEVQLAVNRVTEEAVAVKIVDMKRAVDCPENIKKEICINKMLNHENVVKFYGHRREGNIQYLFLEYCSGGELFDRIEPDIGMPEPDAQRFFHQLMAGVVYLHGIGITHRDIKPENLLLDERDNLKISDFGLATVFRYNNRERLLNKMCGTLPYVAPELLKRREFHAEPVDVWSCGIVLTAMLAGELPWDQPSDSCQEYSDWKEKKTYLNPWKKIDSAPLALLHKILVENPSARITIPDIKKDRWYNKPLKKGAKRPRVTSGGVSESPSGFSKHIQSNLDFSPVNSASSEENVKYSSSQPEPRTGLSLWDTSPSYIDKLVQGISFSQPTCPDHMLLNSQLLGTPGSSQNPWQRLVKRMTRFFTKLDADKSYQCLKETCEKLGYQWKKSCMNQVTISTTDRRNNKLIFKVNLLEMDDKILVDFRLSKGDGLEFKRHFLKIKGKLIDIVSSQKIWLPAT

[3] = target: Serine/threonine-protein kinase 16 (Homo sapiens) (UniProt O75716); test: Inhibition of STK16 at 10 uM after 60 mins by TR-FRET assay
[4] = target: Mitogen-activated protein kinase 10 (Homo sapiens, UniProt P53779); test: Inhibition of recombinant JNK3 after 60 mins by TR-FRET assay
[5] = target: Tyrosine-protein kinase JAK1 (Homo sapiens) (UniProt P23458); test: Inhibition of JAK1 at 10 uM after 60 mins by TR-FRET assay
[6] = target: Mitogen-activated protein kinase 8 (Homo sapiens, UniProt P45983); test: Inhibition of recombinant JNK1 after 60 mins by TR-FRET assay
[7] = target: Rho-associated protein kinase 2 (Homo sapiens) (UniProt O75116); test: Inhibition of ROCK2 at 10 uM after 60 mins by TR-FRET assay
[8] = Oxidative metabolic stability in mouse liver microsomes assessed as compound remaining at 2 uM after 30 mins; format: ADME, Microsome; conditions: read-out: Stability
[9] = target: T2, Aurora kinase A (Homo sapiens) (UniProt O14965); test: Inhibition of Aurora A at 10 uM after 60 mins by TR-FRET assay
T2 sequence (whole entry): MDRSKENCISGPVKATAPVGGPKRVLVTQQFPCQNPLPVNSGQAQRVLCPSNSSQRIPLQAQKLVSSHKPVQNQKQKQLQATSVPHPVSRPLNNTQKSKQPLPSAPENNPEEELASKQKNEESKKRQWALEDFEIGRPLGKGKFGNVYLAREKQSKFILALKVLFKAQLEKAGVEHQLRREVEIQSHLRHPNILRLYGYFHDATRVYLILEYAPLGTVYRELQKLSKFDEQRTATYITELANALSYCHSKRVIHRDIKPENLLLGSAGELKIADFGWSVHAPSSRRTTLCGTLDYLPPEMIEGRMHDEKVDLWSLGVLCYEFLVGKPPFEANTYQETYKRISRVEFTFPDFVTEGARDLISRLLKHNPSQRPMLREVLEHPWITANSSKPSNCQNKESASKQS

[10] = target: Receptor tyrosine-protein kinase erbB-4 (Homo sapiens) (UniProt Q15303); test: Inhibition of ERBB4 at 10 uM after 60 mins by TR-FRET assay
[11] = target: Insulin receptor (Homo sapiens) (UniProt P06213); test: Inhibition of INSR at 10 uM after 60 mins by TR-FRET assay
[12] = target: Dual specificity tyrosine-phosphorylation-regulated kinase 1B (Homo sapiens) (UniProt Q9Y463); test: Inhibition of DYRK1B at 10 uM after 60 mins by TR-FRET assay
[13] = Efflux ratio, ratio of permeability from apical to basolateral in MDCK2 cells over expressing MDR1 in presence of P-gp inhibitor to permeability from apical to basolateral in MDCK2 cells over expressing MDR1 in absence of P-gp inhibitor at 5 uM after 120 mins; format: ADME, cell-based, Canis lupus familiaris; conditions: dog, mdck-ii, 2 h
[14] = Neuroprotective activity in human cortical neurons assessed as inhibition of amyloid-beta-induced toxicity after 2 to 3 days; format: functional; conditions: cortical neurone
[15] = Oxidative metabolic stability in human liver microsomes assessed as compound remaining at 2 uM after 30 mins; format: ADME, Microsome; conditions: read-out: Stability
[16] = target: Serine/threonine-protein kinase PAK 4 (Homo sapiens) (UniProt O96013); test: Inhibition of PAK4 at 10 uM after 60 mins by TR-FRET assay
[17] = target: T3, Dual specificity protein kinase TTK (Homo sapiens) (UniProt P33981); test: Inhibition of TTK at 10 uM after 60 mins by TR-FRET assay
T3 sequence (whole entry): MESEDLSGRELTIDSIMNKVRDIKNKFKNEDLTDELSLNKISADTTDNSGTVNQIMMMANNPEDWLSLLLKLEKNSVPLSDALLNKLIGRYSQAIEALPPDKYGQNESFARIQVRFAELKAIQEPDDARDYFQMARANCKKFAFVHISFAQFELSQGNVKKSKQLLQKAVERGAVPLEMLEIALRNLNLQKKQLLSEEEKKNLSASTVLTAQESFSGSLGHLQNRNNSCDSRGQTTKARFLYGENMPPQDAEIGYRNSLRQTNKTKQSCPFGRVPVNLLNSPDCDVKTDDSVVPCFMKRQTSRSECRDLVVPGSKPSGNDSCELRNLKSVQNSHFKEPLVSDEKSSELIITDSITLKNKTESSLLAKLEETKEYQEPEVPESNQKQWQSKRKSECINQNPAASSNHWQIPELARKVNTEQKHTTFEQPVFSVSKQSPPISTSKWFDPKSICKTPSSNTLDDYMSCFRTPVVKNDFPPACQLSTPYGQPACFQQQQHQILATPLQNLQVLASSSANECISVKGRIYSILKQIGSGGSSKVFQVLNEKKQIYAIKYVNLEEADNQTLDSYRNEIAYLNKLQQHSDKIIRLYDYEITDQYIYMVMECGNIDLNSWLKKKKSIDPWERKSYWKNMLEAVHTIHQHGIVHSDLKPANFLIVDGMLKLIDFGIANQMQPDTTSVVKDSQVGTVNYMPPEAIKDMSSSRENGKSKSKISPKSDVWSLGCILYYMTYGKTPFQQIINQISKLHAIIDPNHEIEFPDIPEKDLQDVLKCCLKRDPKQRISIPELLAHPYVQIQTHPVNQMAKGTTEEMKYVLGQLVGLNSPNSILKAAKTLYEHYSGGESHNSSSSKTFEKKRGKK

[18] = Apparent permeability of the compound from apical to basolateral direction in MDCK2 cells at 5 uM after 120 mins; format: ADME, cell-based, Canis lupus familiaris, MDCK-II; conditions: dog, MDCK

Serine/threonine-protein kinase 16 (Homo sapiens), sequence (O75716 whole entry): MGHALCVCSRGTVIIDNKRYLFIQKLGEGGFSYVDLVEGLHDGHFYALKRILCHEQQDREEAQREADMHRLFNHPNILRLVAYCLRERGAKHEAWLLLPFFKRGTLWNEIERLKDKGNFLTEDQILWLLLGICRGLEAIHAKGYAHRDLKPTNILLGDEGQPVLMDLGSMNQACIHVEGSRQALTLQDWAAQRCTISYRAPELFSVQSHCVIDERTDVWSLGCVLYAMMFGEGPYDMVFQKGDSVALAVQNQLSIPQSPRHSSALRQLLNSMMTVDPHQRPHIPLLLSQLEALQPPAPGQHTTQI
Dual specificity tyrosine-phosphorylation-regulated kinase 1B (Homo sapiens), sequence (Q9Y463 whole entry, looked up): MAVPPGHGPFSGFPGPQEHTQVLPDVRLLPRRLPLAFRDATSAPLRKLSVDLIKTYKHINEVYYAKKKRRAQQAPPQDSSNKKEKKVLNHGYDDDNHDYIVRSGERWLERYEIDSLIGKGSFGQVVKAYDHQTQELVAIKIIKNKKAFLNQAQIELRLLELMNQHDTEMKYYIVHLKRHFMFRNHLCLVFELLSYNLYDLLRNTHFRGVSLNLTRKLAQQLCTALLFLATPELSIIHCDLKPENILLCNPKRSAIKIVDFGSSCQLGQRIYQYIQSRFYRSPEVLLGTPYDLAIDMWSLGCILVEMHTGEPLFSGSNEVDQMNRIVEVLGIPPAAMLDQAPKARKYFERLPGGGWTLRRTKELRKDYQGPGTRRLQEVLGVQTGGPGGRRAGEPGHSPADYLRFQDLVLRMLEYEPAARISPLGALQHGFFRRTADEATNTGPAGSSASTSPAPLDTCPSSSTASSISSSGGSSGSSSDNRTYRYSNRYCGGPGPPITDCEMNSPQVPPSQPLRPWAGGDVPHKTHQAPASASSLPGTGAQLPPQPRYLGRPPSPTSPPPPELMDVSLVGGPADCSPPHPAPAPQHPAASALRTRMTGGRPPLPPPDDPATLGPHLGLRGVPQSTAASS
Receptor tyrosine-protein kinase erbB-4 (Homo sapiens), sequence (Q15303 whole entry): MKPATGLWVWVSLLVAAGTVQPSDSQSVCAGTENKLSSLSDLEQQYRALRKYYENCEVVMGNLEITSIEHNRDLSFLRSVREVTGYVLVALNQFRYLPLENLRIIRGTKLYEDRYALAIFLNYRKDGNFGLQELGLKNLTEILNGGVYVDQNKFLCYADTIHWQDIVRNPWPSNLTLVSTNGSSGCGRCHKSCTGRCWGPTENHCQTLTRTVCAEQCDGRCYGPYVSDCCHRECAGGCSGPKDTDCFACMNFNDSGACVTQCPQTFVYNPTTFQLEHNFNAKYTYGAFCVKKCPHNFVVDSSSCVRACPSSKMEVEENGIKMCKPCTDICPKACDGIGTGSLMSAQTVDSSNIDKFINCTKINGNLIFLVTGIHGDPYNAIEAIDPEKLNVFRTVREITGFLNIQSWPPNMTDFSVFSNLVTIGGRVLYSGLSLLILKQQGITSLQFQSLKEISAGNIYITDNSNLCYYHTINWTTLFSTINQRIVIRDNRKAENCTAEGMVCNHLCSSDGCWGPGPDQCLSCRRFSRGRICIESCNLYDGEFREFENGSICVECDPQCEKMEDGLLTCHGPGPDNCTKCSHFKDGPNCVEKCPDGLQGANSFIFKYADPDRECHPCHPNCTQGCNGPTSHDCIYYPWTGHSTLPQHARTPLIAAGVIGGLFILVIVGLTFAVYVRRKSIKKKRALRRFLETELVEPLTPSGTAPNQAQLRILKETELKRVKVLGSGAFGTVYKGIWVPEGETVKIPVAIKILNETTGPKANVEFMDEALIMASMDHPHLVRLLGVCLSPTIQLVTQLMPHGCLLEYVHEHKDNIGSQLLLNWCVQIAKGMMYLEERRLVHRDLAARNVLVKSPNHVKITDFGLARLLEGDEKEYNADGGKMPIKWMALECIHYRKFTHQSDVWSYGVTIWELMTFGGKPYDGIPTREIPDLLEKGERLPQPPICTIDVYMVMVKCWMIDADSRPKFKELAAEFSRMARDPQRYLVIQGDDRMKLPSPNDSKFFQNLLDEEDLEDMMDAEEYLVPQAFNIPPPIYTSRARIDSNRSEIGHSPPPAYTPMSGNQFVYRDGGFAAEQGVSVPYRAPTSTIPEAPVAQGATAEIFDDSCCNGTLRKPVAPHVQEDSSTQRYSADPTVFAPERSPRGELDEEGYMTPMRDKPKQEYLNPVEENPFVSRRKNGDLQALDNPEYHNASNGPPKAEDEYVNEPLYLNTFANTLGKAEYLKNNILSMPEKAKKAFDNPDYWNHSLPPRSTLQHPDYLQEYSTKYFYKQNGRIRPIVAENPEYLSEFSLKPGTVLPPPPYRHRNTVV
Insulin receptor (Homo sapiens), sequence (P06213 28-758 limits assumed): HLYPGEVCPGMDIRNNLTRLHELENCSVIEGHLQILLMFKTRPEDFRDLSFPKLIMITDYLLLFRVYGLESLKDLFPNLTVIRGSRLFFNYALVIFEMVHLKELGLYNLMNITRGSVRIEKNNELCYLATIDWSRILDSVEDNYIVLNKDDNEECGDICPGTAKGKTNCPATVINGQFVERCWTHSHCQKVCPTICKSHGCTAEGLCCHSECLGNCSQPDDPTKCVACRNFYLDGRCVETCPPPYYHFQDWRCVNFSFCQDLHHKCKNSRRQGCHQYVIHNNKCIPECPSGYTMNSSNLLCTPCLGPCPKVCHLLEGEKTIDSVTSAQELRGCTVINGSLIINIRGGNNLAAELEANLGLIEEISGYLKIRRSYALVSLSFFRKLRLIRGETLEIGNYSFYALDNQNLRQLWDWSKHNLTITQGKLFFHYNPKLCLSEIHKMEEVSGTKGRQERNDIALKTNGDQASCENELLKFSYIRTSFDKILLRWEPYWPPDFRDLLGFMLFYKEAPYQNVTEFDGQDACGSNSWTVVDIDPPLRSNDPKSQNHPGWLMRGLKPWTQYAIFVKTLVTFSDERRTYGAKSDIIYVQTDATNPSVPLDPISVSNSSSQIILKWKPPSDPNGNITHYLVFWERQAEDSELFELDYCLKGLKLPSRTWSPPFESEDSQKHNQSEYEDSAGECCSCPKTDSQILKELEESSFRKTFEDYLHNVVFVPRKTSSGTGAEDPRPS
Insulin receptor (Homo sapiens), sequence (P06213 763-1382 limits assumed): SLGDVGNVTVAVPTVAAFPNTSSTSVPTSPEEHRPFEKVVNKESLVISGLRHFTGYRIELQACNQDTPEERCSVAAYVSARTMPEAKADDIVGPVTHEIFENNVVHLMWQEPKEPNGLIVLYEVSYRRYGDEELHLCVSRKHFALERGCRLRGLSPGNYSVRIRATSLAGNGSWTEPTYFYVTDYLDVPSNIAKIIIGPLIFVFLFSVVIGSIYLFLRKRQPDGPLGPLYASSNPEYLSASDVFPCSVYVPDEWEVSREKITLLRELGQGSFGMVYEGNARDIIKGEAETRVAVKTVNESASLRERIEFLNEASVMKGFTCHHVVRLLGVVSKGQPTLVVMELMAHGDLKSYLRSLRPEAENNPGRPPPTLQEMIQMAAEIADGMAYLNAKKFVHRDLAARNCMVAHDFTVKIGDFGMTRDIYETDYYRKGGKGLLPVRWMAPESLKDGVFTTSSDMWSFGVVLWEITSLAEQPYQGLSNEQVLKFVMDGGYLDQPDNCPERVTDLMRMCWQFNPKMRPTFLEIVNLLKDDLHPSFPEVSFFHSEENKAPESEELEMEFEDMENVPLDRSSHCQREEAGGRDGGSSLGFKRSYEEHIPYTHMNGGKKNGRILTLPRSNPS
Mitogen-activated protein kinase 8, sequence (P45983 whole entry): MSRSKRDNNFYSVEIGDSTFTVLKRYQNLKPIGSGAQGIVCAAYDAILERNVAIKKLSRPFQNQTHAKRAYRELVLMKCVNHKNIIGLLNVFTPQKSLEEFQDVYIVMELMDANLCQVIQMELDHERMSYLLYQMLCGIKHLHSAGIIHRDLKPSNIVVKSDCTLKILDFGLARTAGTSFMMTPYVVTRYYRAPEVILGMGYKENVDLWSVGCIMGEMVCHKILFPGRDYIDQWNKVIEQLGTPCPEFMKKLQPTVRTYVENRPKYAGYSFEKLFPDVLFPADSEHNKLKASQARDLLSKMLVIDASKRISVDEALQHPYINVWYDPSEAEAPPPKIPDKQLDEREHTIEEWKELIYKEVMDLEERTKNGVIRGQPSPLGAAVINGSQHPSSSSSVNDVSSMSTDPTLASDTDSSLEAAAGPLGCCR
Serine/threonine-protein kinase PAK 4 (Homo sapiens), sequence (O96013 whole entry, looked up): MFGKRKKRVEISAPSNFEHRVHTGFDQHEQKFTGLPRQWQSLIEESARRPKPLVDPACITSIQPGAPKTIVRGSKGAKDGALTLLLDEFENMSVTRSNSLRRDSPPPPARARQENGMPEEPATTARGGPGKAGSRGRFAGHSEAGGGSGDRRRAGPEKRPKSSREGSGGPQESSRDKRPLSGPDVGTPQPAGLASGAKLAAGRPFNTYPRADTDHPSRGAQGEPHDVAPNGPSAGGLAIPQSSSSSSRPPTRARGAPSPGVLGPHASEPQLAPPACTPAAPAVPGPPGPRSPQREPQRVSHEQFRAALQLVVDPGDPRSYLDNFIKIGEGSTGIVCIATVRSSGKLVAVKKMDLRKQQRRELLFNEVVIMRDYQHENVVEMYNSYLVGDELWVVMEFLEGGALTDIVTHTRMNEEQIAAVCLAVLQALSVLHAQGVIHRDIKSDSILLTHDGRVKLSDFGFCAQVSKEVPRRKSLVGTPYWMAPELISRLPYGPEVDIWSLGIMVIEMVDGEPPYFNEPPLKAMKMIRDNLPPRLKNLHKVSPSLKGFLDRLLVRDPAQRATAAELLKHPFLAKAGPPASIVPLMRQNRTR

| SMILES | inhibition [1] [%] | inhibition [2] [%] | inhibition [3] [%] | IC50 [4] [µM] | inhibition [5] [%] | IC50 [6] [µM] | inhibition [7] [%] | remaining at 0.5 h, 2 µM [8] [%] | inhibition [9] [%] | inhibition [10] [%] | inhibition [11] [%] | inhibition [12] [%] | Ratio [13] | EC50 [14] [µM] | remaining at 0.5 h, 2 µM [15] [%] | inhibition [16] [%] | inhibition [17] [%] | Papp A→B at 2 h, 5 µM [18] [nm/s] |
| --- | --- | --- | --- | --- | --- | --- | --- | --- | --- | --- | --- | --- | --- | --- | --- | --- | --- | --- |
| O=c1[nH]nc(-c2ccnc(NC3CCCCC3)c2)n1-c1ccc2ccccc2c1 | 29 | -5 | -1 | 0.024 | 1 | 1 | 15 | 2.6 | 17 | 2 | 5 | 20 | 2.6 | > 50 | 57 | -2 | 10 | 9 |
| O=c1n(C2CCOCC2)nc(-c2ccnc(NC3CCCCC3)c2)n1-c1ccc2ccccc2c1 | 0 | -4 |  |  | 1 | 0.42 | 9 |  | 0 | 3 | 10 | 39 |  |  |  | 27 | 3 |  |
| O=c1n(Cc2ccncc2)nc(-c2ccnc(NC3CCCCC3)c2)n1-c1ccc2ccccc2c1 | 6 | -9 |  | 0.029 | -4 | 0.7 | 6 | 48 | -5 | -3 | 2 | 18 |  | 12 | 2 | -1 |  | 81 |
| O=c1n(Cc2ccccn2)nc(-c2ccnc(NC3CCOCC3)c2)n1-c1ccc2ccccc2c1 | -5 | -9 | -9 | 0.054 |  | 0.99 | 5 | 1.4 | 2 | -3 | 7 | 1 | 1.4 |  | 40 |  | 0 | 185 |
| O=c1[nH]nc(-c2ccnc(NC3CCCOC3)c2)n1-c1ccc2ccccc2c1 (configuration not stated) | 34 | -9 | 21 | 0.032 | 1 | 0.74 | 8 |  | 10 | 16 | 18 | 76 |  |  |  | 69 | 30 |  |
| O=c1[nH]nc(-c2ccnc(NC3CCOCC3)c2)n1-c1ccc2ccccc2c1 | 49 |  | 38 | 0.085 | -3 | 1.8 | 10 | 12 | 30 | 3 | 8 | 22 | 12 |  | 73 |  | 44 | 157 |
